Measured values from ChEMBL document CHEMBL5257123, “Synthesis of 6-alkoxy and 6-hydroxy-alkyl amine derivatives of braylin as vasorelaxing agents” (Bioorg Med Chem Lett, 2023).
Calls of active or inactive are those of the source. No cut-off for these calls is given here.

Tests used:
[1] = organism: Rattus norvegicus; assay: Vasorelaxant activity in U46619-induced preconstricted rat endothelium-intact main mesenteric artery assessed as relaxation response at 30 uM relative to control; type: functional
[2] = organism: Rattus norvegicus; assay: Vasorelaxant activity in U46619-induced contraction rat endothelium-intact main mesenteric arterial rings assessed as relaxation response; type: functional; conditions: Mesenteric artery
[3] = organism: Rattus norvegicus; assay: Vasorelaxant activity in U46619-induced preconstricted rat endothelium-intact main mesenteric artery assessed as relaxation response; type: functional
[4] = organism: Rattus norvegicus; assay: Vasorelaxant activity in U46619-induced contraction rat endothelium-intact main mesenteric arterial rings assessed as relaxation response relative to control; type: functional; conditions: Mesenteric artery
[5] = organism: Rattus norvegicus; assay: Vasorelaxant activity in U46619 induced preconstricted rat endothelium-intact thoracic aortic rings assessed as vasorelaxation response; type: functional; conditions: Thoracic aorta
[6] = Cytotoxicity against VSMC (unknown origin) cells assessed as cell survival at 10 uM measured after 12 hrs by MTT assay; type: toxicity, cell-based; conditions: read-out: Activity
[7] = test system: BV-2; assay: Anti-neuroinflammatory activity in mouse BV2 cells assessed as reduction in LPS-induced IL-6 production at 10 uM preincubated for 30 mins followed by LPS stimulation measured after 24 hrs by ELISA; type: functional, cell-based; conditions: time 24.5 hrs
[8] = organism: Rattus norvegicus; assay: Vasorelaxant activity in U46619-induced contraction in rat endothelium-denuded main mesenteric arterial ring assessed as relaxation response relative to control; type: functional; conditions: Mesenteric artery
[9] = test system: BV-2; assay: Anti-neuroinflammatory activity in mouse BV2 cells assessed as reduction in LPS-induced TNFalpha production at 10 uM preincubated for 30 mins followed by LPS stimulation measured after 24 hrs by ELISA; type: functional, cell-based; conditions: time 24.5 hrs
[10] = organism: Rattus norvegicus; assay: Vasorelaxant activity in U46619-induced contraction in rat endothelium-denuded main mesenteric arterial ring assessed as relaxation response; type: functional; conditions: Mesenteric artery
[11] = organism: Rattus norvegicus; assay: Vasorelaxant activity in MKHS-induced preconstricted rat main mesenteric arterial rings assessed as relaxation response; type: functional; conditions: Mesenteric artery
[12] = Cytotoxicity against VSMC (unknown origin) cells assessed as cell survival at 1 uM measured after 12 hrs by MTT assay; type: toxicity, cell-based; conditions: read-out: Activity
[13] = organism: Rattus norvegicus; assay: Vasorelaxant activity in rat endothelium-intact main mesenteric artery assessed as relaxation response at 10 uM; type: functional
[14] = organism: Rattus norvegicus; assay: Vasorelaxant activity in U46619-induced preconstricted rat endothelium-intact main mesenteric artery assessed as relaxation response at 10 uM (reference value: 9.08 +/- 1.25 mN); type: functional; design: scale not given: the % may be the effect or the level left
[15] = organism: Rattus norvegicus; assay: Vasorelaxant activity in rat endothelium-denuded main mesenteric artery assessed as relaxation response at 10 uM; type: functional

Question: For `CN(C)CC(O)COc1cc2ccc(=O)oc2c2c1OC(C)(C)C=C2` (stereo not given), which Emax at 30 µM [1] is on record?
Answer: < 50%

Question: With `CC1(C)C=Cc2c(c(OCC(O)CNCc3ccccn3)cc3ccc(=O)oc23)O1` (stereo not given) as the molecule, how does the Emax at 30 µM [1] read?
Answer: < 50%

Question: With `CCN1CCN(CC(O)COc2cc3ccc(=O)oc3c3c2OC(C)(C)C=C3)CC1` (stereo not given) as the molecule, how does the Emax at 30 µM [1] read?
Answer: < 50%

Question: For `CCCCCN(C)CC(O)COc1cc2ccc(=O)oc2c2c1OC(C)(C)C=C2` (stereo not given), which Emax at 30 µM [1] is on record?
Answer: < 50%

Question: For `CN1CCN(CC(O)COc2cc3ccc(=O)oc3c3c2OC(C)(C)C=C3)CC1` (stereo not given), which Emax at 30 µM [1] is on record?
Answer: < 50%

Question: For `CCCCOc1cc2ccc(=O)oc2c2c1OC(C)(C)C=C2`, which Emax at 30 µM [1] is on record?
Answer: < 50%

Question: With `CC1(C)C=Cc2c(c(OCC(O)CN3CCNCC3)cc3ccc(=O)oc23)O1` (stereo not given) as the molecule, how does the Emax at 30 µM [1] read?
Answer: < 50%

Question: Which EC50 [2] does the source give for `CCCOc1cc2ccc(=O)oc2c2c1OC(C)(C)C=C2` here?
Answer: 2040 nM

Question: What about the EC50 ([3]; read-out: EC50) of the same molecule?
Answer: 1900 nM

Question: What about the EC50 ([3]; read-out: pEC50 (converted)) of the same molecule?
Answer: 2040 nM

Question: What about the Emax [4] of the same molecule?
Answer: 80.6%

Question: What about the Emax at 30 µM [1] of the same molecule?
Answer: 80.6%

Question: And the Activity [5]?
Answer: Dose-Dependent Effect

Question: And the viability at 12 h, 10 µM [6]?
Answer: 105%

Question: What about the Activity [7] of the same molecule?
Answer: Active

Question: What about the Emax [8] of the same molecule?
Answer: 85%

Question: What about the Activity [9] of the same molecule?
Answer: Active

Question: And the EC50 [10]?
Answer: 339 nM

Question: What about the Activity [11] of the same molecule?
Answer: Active

Question: What about the viability at 12 h, 1 µM [12] of the same molecule?
Answer: 107%

Question: With `CC1(C)C=Cc2c(c(O)cc3ccc(=O)oc23)O1` as the molecule, how does the Activity [7] read?
Answer: Active

Question: And the Activity [9]?
Answer: Active

Question: For `CC1(C)C=Cc2c(ccc3ccc(=O)oc23)O1` [SESALIN], which EC50 ([3]; read-out: EC50) is on record?
Answer: 2120 nM

Question: What about the EC50 ([3]; read-out: pEC50 (converted)) of the same molecule?
Answer: 2140 nM

Question: And the Emax at 30 µM [1]?
Answer: 60.8%

Question: What about the Activity [7] of the same molecule?
Answer: Active

Question: What about the Activity [9] of the same molecule?
Answer: Active

Question: Which Emax at 30 µM [1] does the source give for `CC(C)N(CC(O)COc1cc2ccc(=O)oc2c2c1OC(C)(C)C=C2)C(C)C` (stereo not given) here?
Answer: < 50%

Question: Which EC50 [2] does the source give for `CCOc1cc2ccc(=O)oc2c2c1OC(C)(C)C=C2` here?
Answer: 200 nM

Question: And the EC50 ([3]; read-out: pEC50 (converted))?
Answer: 200 nM

Question: What about the Emax [4] of the same molecule?
Answer: 96.6%

Question: What about the Emax at 30 µM [1] of the same molecule?
Answer: 96.6%

Question: And the Activity [5]?
Answer: Dose-Dependent Effect

Question: And the viability at 12 h, 10 µM [6]?
Answer: 105%

Question: What about the Activity [7] of the same molecule?
Answer: Active

Question: What about the Emax [8] of the same molecule?
Answer: 91.4%

Question: What about the Activity [9] of the same molecule?
Answer: Active

Question: And the EC50 [10]?
Answer: 195 nM

Question: What about the Activity [11] of the same molecule?
Answer: Active

Question: And the viability at 12 h, 1 µM [12]?
Answer: 114%

Question: Which Emax at 30 µM [1] does the source give for `CC(C)Oc1cc2ccc(=O)oc2c2c1OC(C)(C)C=C2` here?
Answer: < 50%

Question: Which Emax at 30 µM [1] does the source give for `CC1(C)C=Cc2c(c(OCC3CO3)cc3ccc(=O)oc23)O1` (stereo not given) here?
Answer: < 50%

Question: Which Emax at 30 µM [1] does the source give for `CC1(C)C=Cc2c(c(OCC(O)CN3CCCCC3)cc3ccc(=O)oc23)O1` (stereo not given) here?
Answer: < 50%

Question: For `CCN(CC)CC(O)COc1cc2ccc(=O)oc2c2c1OC(C)(C)C=C2` (stereo not given), which Emax at 30 µM [1] is on record?
Answer: < 50%

Question: Which Emax at 30 µM [1] does the source give for `CC1(C)C=Cc2c(c(OCC(O)CN3CCCC3)cc3ccc(=O)oc23)O1` (stereo not given) here?
Answer: < 50%

Question: For `CC(=O)OCC[N+](C)(C)C` [ACETYLCHOLINE], which Activity [13] is on record?
Answer: Active

Question: What about the Activity [14] of the same molecule?
Answer: 88.4%

Question: What about the Activity [15] of the same molecule?
Answer: inactive

Question: Which viability at 12 h, 10 µM [6] does the source give for `COc1cc2ccc(=O)oc2cc1O` [SCOPOLETIN] here?
Answer: 102%

Question: What about the Activity [7] of the same molecule?
Answer: Active

Question: And the Activity [9]?
Answer: Active

Question: And the viability at 12 h, 1 µM [12]?
Answer: 91.2%

Question: For `COc1cc2ccc(=O)oc2c2c1OC(C)(C)C=C2`, which EC50 ([3]; read-out: EC50) is on record?
Answer: 1580 nM

Question: What about the EC50 ([3]; read-out: pEC50 (converted)) of the same molecule?
Answer: 1580 nM

Question: What about the viability at 12 h, 10 µM [6] of the same molecule?
Answer: 95.2%

Question: What about the Activity [7] of the same molecule?
Answer: Active

Question: And the Activity [9]?
Answer: Active

Question: What about the viability at 12 h, 1 µM [12] of the same molecule?
Answer: 101%

Question: Which Emax at 30 µM [1] does the source give for `CC1(C)C=Cc2c(c(OCC(O)CN3CCOCC3)cc3ccc(=O)oc23)O1` (stereo not given) here?
Answer: < 50%

Question: With `CCCCN(C)CC(O)COc1cc2ccc(=O)oc2c2c1OC(C)(C)C=C2` (stereo not given) as the molecule, how does the Emax at 30 µM [1] read?
Answer: < 50%
